Measured values reported in patent US5667764A, “Compounds, compositions and methods for binding bio-affecting substances to surface membranes of bio-particles” (Zynaxis, Inc., priority 1992, dated 1997).

Experiments:
membrane ghosts = assay: Membrane binding stability (MBS) assay in membrane ghosts with 5% albumin; conditions: 24 hours, Table III
From the text: Determination of Membrane Binding Stability
For example, very stable binding to membranes might be required for applications such as delivery of therapeutic radionuclides to tumor sites, as loss of compound could lead to the radionuclide producing its toxic effect at non-tumor sites. On the other hand, more rapid loss of compound from biomembranes may be desirable for application involving controlled delivery rates of therapeutic agents. Accordingly, there is described hereinbelow an assay for determining MBS under conditions approximating those found in vivo.
In carrying out this assay, approximately physiological concentrations of serum albumin (5%) are used. […] To better approximate the effects of large fluid volumes to which labelled cells are exposed in vivo, the assay for MBS is carried out by suspending a decreasing number of labeled membrane ghosts in a fixed volume of albumin-containing saline. At 24 hours, the total amount of label present is determined by sampling the well mixed suspension; subsequently, the membrane ghosts are pelleted by centrifugation and the amount of label released into the supernatant is determined and expressed as a percent of total label. Percent retention is plotted against number of ghosts per ml. of suspension, and MBS is determined as the area under the curve between 5×10^7 ghosts/ml. and 4×10^8 ghosts/ml.

[1] = test system: red blood cell ghosts (plasma membrane); assay: Membrane retention coefficient (MRC) in red blood cell ghosts; type: binding; conditions: for Δ MRC: change in MRC to 24 hr
Experimental: Determination of Membrane Retention Coefficient
The membrane retention coefficient (MRC) provides information regarding how well a given compound is retained in the plasma membrane of a cell and is determined as described below.
Generation of red blood cell ghosts for use as a model membrane is achieved by centrifuging whole blood at 300×g for 15 minutes, removal of the plasma and resuspension of the cell pellet in 0.83% (w/v) ammonium chloride. The ghosts are pelleted from the ammonium chloride by centrifuging at 10,000×g for 10 minutes. This ammonium chloride washing procedure is repeated a minimum of five times to insure that complete release of hemoglobin from the cells has occured. The ghosts are labeled with the compound in question at a concentration allowing for detection of the labeled ghosts by instrumental analysis or fluorescent microscopic methods, and at a concentration similar to those that would be used to label cells for a specific application as described above. For the determinations hereinbelow stock solutions of the compounds in question were prepared in ethanol at a molar concentration of 2×10^-3, and working dilutions of the compounds were prepared in iso-osmotic sucrose (52 g/500 ml distilled water). After incubation of the ghosts at an approximate concentration of 1×10^9 ghosts/ml in the working dilutions of the compounds for 10 minutes, the samples were centrifuged at 10,000×g to pellet the ghosts and the staining solution was aspirated from the samples. The labeled ghosts were resuspended in 1 ml of phosphate buffered saline solution containing 10% fetal bovine serum (PBS-FBS). Triplicate 20 ul aliquots were removed from each sample for the determination of the amount of total compound present. The samples were centrifuged as described above and triplicate 20 ul aliquots were removed from the supernatant for quantitative determination of amount of unbound compound present.
After sampling, the supernatant was aspirated and the red cell ghost pellet was resuspended in 1.0 ml of the PBS-FBS, which was once again sampled as described above. This procedure was repeated at least six times, allowing for detection of rapidly released compounds and was monitored after times equal to or greater than 24 hours to allow for the detection of more slowly released compounds. For the determination of the amount of compound present in each sample, the 20 ul aliquots were extracted into 3.0 ml of n-butanol by shaking. The samples were centrifuged at 3000×g to remove membrane debris and the butanol fractions were assayed for compound concentration. Fluorescent compounds are assayed in this manner using peak excitation and emission wave lengths for the particular compounds being assayed to determine the fluorescence units for each sample.
The determination of the amount of compound present in each sample as described above allows for the calculation of the MRC for each washing or fixed time point. The value is obtained by the following formula: […]
wherein CT represents the amount of compound present (in units determined by the method used to assay the compound) in the total sample and CS represents the amount of compound present in the supernatant sample for that particular time point. The comparison of the MRC values defines criteria for identification of the compounds of this invention, these criteria being: 1) the MRC values determined for each washing steps should have a value of at least about 90 and 2) the percent difference between MRC values over at least a 24 hour time period should be less than about 10%. [drawing 14]
The data provided in Table I below are the results from one experiment and serve as an example of the MRC determination. […]

| SMILES | MBS (membrane ghosts) [%] | Membrane retention coefficient (MRC), 24 HR [1] | Δ MRC [1] [%] | Membrane retention coefficient (MRC), WASH 1 [1] | Membrane retention coefficient (MRC), WASH 2 [1] | Membrane retention coefficient (MRC), WASH 3 [1] | Membrane retention coefficient (MRC), WASH 4 [1] | Membrane retention coefficient (MRC), WASH 5 [1] | Membrane retention coefficient (MRC), WASH 6 [1] |
| --- | --- | --- | --- | --- | --- | --- | --- | --- | --- |
| CCCCCCCCCCCCCCCCCCCCCCN1C(=CC=Cc2sc3ccccc3[n+]2CCC)Sc2ccccc21 [V] | 64 ± 3.4 | – | – | – | – | – | – | – | – |
| CCCCCCCCCCCCCCCCCCCCCCCCCC[n+]1c2cc(N(C)C)ccc2cc2ccc(N(C)C)cc21 [N] | – | 98.27 | 0.61 | 95.97 | 97.51 | 98.32 | 98.48 | 98.71 | 98.88 |
| CCCCCCCCCCCCCCCCCCN1C(=CC=Cc2oc3ccccc3[n+]2CCCCCCCCCCCCCCCCCC)Oc2ccccc21 [Y] | 93 ± 1.0 | – | – | – | – | – | – | – | – |
| CCCCCCCCCCCCCCCCCCN1C(=CC=Cc2oc3ccccc3[n+]2CCCCC)Oc2ccccc21 [J] | – | 87.24 | 10.57 | 94.07 | 96.99 | 98.66 | 98.39 | 98.82 | 97.56 |
| CCCCCCCCCCCCCCN1C(=CC=Cc2oc3ccccc3[n+]2CCCCCCCCCCCCCC)Oc2ccccc21 [W] | 77 ± 1.1 | – | – | – | – | – | – | – | – |
| CCCCCCCCCCCCCCN1C(=CC=CC2=[N+](CCC)c3ccccc3C2(C)C)C(C)(C)c2ccccc21 [AC] | 10 ± 2.1 | – | – | – | – | – | – | – | – |
| CCCCCCCCCCCCCCCCCCCCCC[n+]1c2cc(N(C)C)ccc2cc2ccc(N(C)C)cc21 [L] | – | 96.82 | 3.12 | 97.90 | 98.89 | 98.90 | 99.18 | 99.09 | 99.22 |
| CCCCCCCCCCCCCCCCCCCCCCN1C(=CC=Cc2oc3ccccc3[n+]2CCC)Oc2ccccc21 [U] | 47 ± 3.1 | – | – | – | – | – | – | – | – |
| CCCCCCCCCCN1C(=CC=CC2=[N+](CCCCCCCCCC)c3ccccc3C2(C)C)C(C)(C)c2ccccc21 [B] | – | 54.08 | 42.95 | 83.28 | 92.36 | 94.63 | 94.94 | 95.33 | 94.80 |
| CCCCCCCCCCCCCCCCCCN1C(=CC=Cc2sc3ccccc3[n+]2CCCCCCCCCCCCCCCCCC)Sc2ccccc21 [AA] | 94 ± 1.5 | – | – | – | – | – | – | – | – |
| CCCCCCCCCCCCCCN1C(=CC=CC2=[N+](CCCCCCCCCCCCCC)c3ccccc3C2(C)C)C(C)(C)c2ccccc21 [C] | – | 93.90 | 5.26 | 94.85 | 97.24 | 98.40 | 98.64 | 98.43 | 99.12 |
| CCCCCCCCCCCCCCN1C(=CC=Cc2oc3ccccc3[n+]2CCC)Oc2ccccc21 [D] | – | 18.84 | 75.82 | 50.40 | 61.20 | 64.45 | 65.85 | 70.62 | 77.92 |
| CCCCCCCCCCCCCCCCCCCCCCN1C(=CC=Cc2oc3ccccc3[n+]2CCC)Oc2ccccc21 [G] | – | 96.90 | 1.46 | 94.42 | 96.96 | 98.03 | 97.93 | 97.92 | 98.34 |
| CCCCCCCCCCCCCCN1C(=CC=Cc2sc3ccccc3[n+]2CCCCCCCCCCCCCC)Sc2ccccc21 [X] | 91 ± 1.3 | – | – | – | – | – | – | – | – |
| CCCCCCCCCCCCCCCCCCN1C(=CC=Cc2oc3ccccc3[n+]2CCCCCCCC)Oc2ccccc21 [I] | – | 97.65 | 2.08 | 94.69 | 98.24 | 98.32 | 98.78 | 98.96 | 99.73 |
| CCCCCN1C(=CC=CC2=[N+](CCCCC)c3ccccc3C2(C)C)C(C)(C)c2ccccc21 [A] | – | 0.00 | 100.00 | 51.63 | 51.12 | 44.82 | 41.39 | 12.59 | 17.48 |
| CCCCCCCCCCCCCCCCCCN1C(=CC=Cc2oc3ccccc3[n+]2CCC)Oc2ccccc21 [E] | – | 53.81 | 44.62 | 90.69 | 94.74 | 96.28 | 96.74 | 96.41 | 97.17 |
| CCCCCCCCCCCCCCCCCC[n+]1c2cc(N(C)C)ccc2cc2ccc(N(C)C)cc21 [M] | – | 42.88 | 55.79 | 91.01 | 95.12 | 95.82 | 96.42 | 96.27 | 97.01 |
| CCCCCCCCCCCCCCCCCCCCN1C(=CC=Cc2oc3ccccc3[n+]2CCC)Oc2ccccc21 [Compound H] | – | 90.10 | 8.43 | 91.70 | 97.22 | 97.97 | 98.24 | 98.09 | 98.40 |
| CCC[n+]1c(C=CC=C2Oc3ccccc3N2CCC(C)CCCC(C)CCCC(C)CCCC(C)C)oc2ccccc21 (centres unmarked) [F] | – | 36.77 | 61.64 | 88.82 | 93.94 | 95.15 | 95.26 | 94.51 | 96.64 |
| CCCCCCCCCCCCCCCCCCCCCCN1C(=CC=Cc2oc3ccccc3[n+]2CCC)Oc2ccccc21 [K] | – | 97.90 | 1.56 | 97.35 | 98.47 | 98.16 | 98.99 | 99.01 | 99.46 |
